The values that follow come from a melting point compilation (Tetko et al.; mined from patent text by program, amines drawn as free bases though some values may be those of a salt).

Structures are written as SMILES. Some results are limits rather than exact numbers.

As usually defined, the melting point is the temperature, or range, at which the solid turns liquid. The molecule `COc1ccc(C(=O)Nc2ccc3ccc(Oc4ccccc4C)nc3n2)cc1` returned a melting point of 153 °C.

Consider `CCCCOc1ccc(S(=O)(=O)N2CCC(O)C2)cc1` (configuration not stated), for which the melting point lay in the range of 83 to 84 °C.

`CCOC(=O)C(=CC=C(C)C=CC=C(C)C=CC1=C(C)CCCC1(C)C)CC` showed a melting point of 164 to 165 °C.

`CCCCCCCCCCCCCCCCc1nc(N(C)C)nc(OC)c1Br`: the melting point lay within 66 to 67 °C.

In turn, `COC(=O)C12COc3cc(C(F)(F)F)ccc3C1=NN(C(=O)Nc1ccc(C(F)(F)F)cn1)C2` (configuration not stated) yielded a melting point of 194 to 195 °C.

Molecule `O=C(O)c1ccc(-c2nc(-c3ccccn3)cs2)cc1` registered a melting point greater than 300 °C.

`Nc1ncc2c(n1)-c1cccnc1CC2` showed a melting point of 220 to 226 °C.

The molecule `CCCCCC(CC(=O)Nc1cc(C(N)=O)ccc1C(C)(C)C)c1cc(C)c(OC)cc1OC` (configuration not stated) yielded a melting point of 179 to 180 °C.

Molecule `CCn1c(=O)n(OCc2ccccc2)c(=O)c2cc(F)c(N3CCNCC3)cc21` came in with a melting point of 166 to 167 °C.

The molecule `COc1cc(OC)nc(NC(=O)N=NS(=O)(=O)C2N(C)C=CN2C)n1` registered a melting point of 201 to 203 °C.

Take `O=C(O)c1cccc2c(=O)c3cc(I)ccc3[nH]c12`: the melting point was in the range of 355 to 357 °C.

As to `COc1ccc(C2C3=C(COC3=O)Nc3onc(-c4ccc(Cl)cc4)c32)cc1O` (configuration not stated), the melting point was 245 to 246 °C.

In turn, `Cc1nc(CCCCCCC(=O)O)c(C(=O)O)s1` registered a melting point of 147 to 149 °C.

For the molecule `CCOC(=O)c1cc2c(C)noc2nc1C(=O)OCC`, the melting point was in the range of 95 to 99 °C.

On to `CCc1ccc(-c2nc3ccccc3[nH]2)nc1`, for which the melting point lay in the range of 172 to 173 °C.

The molecule `O=C1c2cccc3cccc(c23)C(=O)N1CCN1CCN(CCO)CC1` displayed a melting point of 165 to 166 °C.

`CC(C)(C)c1cc(C2SCC(=O)N2CCCBr)cc(C(C)(C)C)c1O` (configuration not stated): the melting point was in the range of 130 to 131 °C.

For `COCc1nnc(NCCCN2CC3CCC(CC3)C2)c2cc3ccccn3c12`, the melting point was 229 to 232 °C.

`COc1cccc(C(=O)N(C(=O)OCCl)N(C(=O)c2cc(C)cc(C)c2)C(C)(C)C)c1C`: the melting point was in the range of 117 to 119 °C.

For the molecule `COc1cc(F)ccc1-c1ccc(S(=O)(=O)N2c3ccccc3CC2C(=O)O)cc1` (configuration not stated), the melting point is 93 to 100 °C.

As to `CCC(C)Nc1c(-c2ccc(OC)cc2Cl)c(Cl)nc2ncnn12` (configuration not stated), the melting point worked out at 116 °C.

`O=CNC1Cc2ccccc2C1` gave a melting point of 72 to 74 °C.

On to `N#Cc1ccc(SCc2ccccc2)cc1`, for which the melting point was determined as 85 °C.

Molecule `O=c1[nH]c2ncc(Cl)cc2o1` registered a melting point of 184 to 186 °C.

For `O=S(=O)(Cc1n[nH]c(-c2ccco2)n1)c1ccccc1`, the melting point was 185 to 186 °C.

As to `C[Si](C)(C)OC1(c2ccccc2F)C(=O)Nc2ccc(Cl)cc21` (configuration not stated), the melting point fell in the range of 125 to 127 °C.

Consider `CC(C)(C)OC(=O)Cn1c(C(=O)O)cc2cc(NC(=O)OC(C)(C)C)ccc21`, for which the melting point is greater than 300 °C.

With `CC1C(=O)Oc2cc(N3CCCCCC3)ccc21` (configuration not stated), the melting point was in the range of 57 to 59 °C.

For the molecule `FCCCCNc1cn(-c2cccnc2)nc1Cl`, the melting point was 82 to 83 °C.

With `O=Cc1cc(-c2ncco2)ccc1Br`, the melting point lay in the range of 100 to 104 °C.

`Cc1ccc2c(c1)Oc1ccc([N+](=O)[O-])cc1C(=O)N2C` had a melting point of 156 to 159 °C.

In turn, `O=C(NCCCc1ccccc1)c1ccccc1NCc1ccncc1` displayed a melting point of 117 °C.

`O=c1cc2c(nn1Cc1ccc(Cl)cc1)-c1ccccc1S(=O)CC2` (configuration not stated) displayed a melting point of 207 to 209 °C.

In turn, `CC(CS)C(=O)N(CC(=O)O)Cc1ccco1` (configuration not stated) showed a melting point of 150 to 153 °C.

`CN(C)S(=O)(=O)n1cc(-c2ccc(Cl)cc2Cl)nc1C(N)=S` showed a melting point of 184 to 187 °C.

With `CCCCCCCCCCCCOc1cc(O)c(C(=O)c2ccccc2)cc1Cl`, the melting point lay in the range of 75 to 77 °C.

For `CCCCOc1ccc(C(=O)N[C@@H]2CCc3cccc(N4CCN(C)CC4)c3C2)cc1`, the melting point fell in the range of 190 to 191 °C.
